The NIST ThermoML archive (doi:10.1016/j.jct.2012.02.007)

Tests used:
[1] = mn = molality of the nth substance listed, in mol/kg; details: 101.3 kPa, Liquid; for speed of sound: Sing-around technique in a fixed-path interferometer; for mass density: Vibrating tube method
[2] = osmotic coefficient (dimensionless); mn = molality of the nth substance listed, in mol/kg; details: 323.15 K, Liquid, Vapor Pressure Osmometer

CCCCn1cc[n+](C)c1.N#CN=C=[N-] [1-butyl-3-methylimidazolium dicyanamide] + CCCO
[1]
Details | mass density, 293.15 K [kg/m3] | mass density, 308.15 K [kg/m3] | mass density, 323.15 K [kg/m3] | speed of sound, 293.15 K [m/s] | speed of sound, 308.15 K [m/s] | speed of sound, 323.15 K [m/s]
m1 = 0.0646 | 807.07 | 795.05 | 782.64 | 1229.5 | 1178.7 | 1128.5
m1 = 0.1004 | 808.7 | 796.71 | 784.35 | 1232.4 | 1181.7 | 1131.7
m1 = 0.154 | 811.09 | 799.15 | 786.83 | 1236.7 | 1186.2 | 1136.4
m1 = 0.2041 | 813.27 | 801.36 | 789.09 | 1240.4 | 1190 | 1140.4
m1 = 0.2521 | 815.21 | 803.31 | 791.08 | 1243.9 | 1193.4 | 1143.8
m1 = 0.5071 | 825.41 | 813.67 | 801.63 | 1261.1 | 1211.6 | 1162.8
m1 = 0.7606 | 834.72 | 823.09 | 811.21 | 1277.2 | 1228.3 | 1180.1
m1 = 1.012 | 843.22 | 831.69 | 819.94 | 1292.2 | 1243.8 | 1196.2
m1 = 1.263 | 851.11 | 839.67 | 828.03 | 1306.2 | 1258.2 | 1211.2
m1 = 1.512 | 858.43 | 847.07 | 835.54 | 1319.4 | 1271.9 | 1225.3
m1 = 1.765 | 865.25 | 853.97 | 842.54 | 1331.8 | 1284.7 | 1238.6
m1 = 2.017 | 871.65 | 860.45 | 849.11 | 1343.6 | 1297 | 1251.3
m1 = 2.52 | 883.38 | 872.29 | 861.11 | 1365.8 | 1319.7 | 1274.6
m1 = 2.826 | 889.83 | 878.84 | 867.75 | 1377.8 | 1332.3 | 1287.8
m1 = 3.488 | 902.23 | 891.37 | 880.45 | 1401.8 | 1357.1 | 1313.3

[2]
Details | osmotic coefficient
m1 = 0.0543 | 0.973
m1 = 0.0899 | 0.898
m1 = 0.1032 | 0.871
m1 = 0.2057 | 0.816
m1 = 0.3018 | 0.78
m1 = 0.4097 | 0.748
m1 = 0.5035 | 0.737
m1 = 0.8276 | 0.714
m1 = 1.24 | 0.691
m1 = 1.64 | 0.668
m1 = 2.049 | 0.646
m1 = 2.45 | 0.634
m1 = 2.837 | 0.616
m1 = 3.324 | 0.599
